The data set is described as follows: Stability of the drug substance during the homogenization process (HPLC spectra). Format: physicochemical. As to conditions: nanosuspension prepared at pH 7.2 without pH change; additional peak in HPLC spectra (FIG. 2C), in some cases. On the procedure: The formulation was filtered through a 0.22 μm membrane for sterilization. The Paclitaxel content before and after filtration was measured by HPLC. […] The split peak in HPLC may indicate the degradation of the drug during the process.

The source of these data is patent US20200054563A1, “PHARMACEUTICAL COMPOSITION FOR IN VIVO DELIVERY, METHOD OF PREPARATION OF A SUBSTANTIALLY WATER-INSOLUBLE PHARMACOLOGICALLY ACTIVE AGENT FOR IN VIVO DELIVERY, AND METHOD OF TREATING DISEASE” (ZY Therapeutics Inc., priority 2017, published 2020).

The structures appear in SMILES notation.

As for `CC(=O)O[C@H]1C(=O)[C@@]2(C)[C@H]([C@H](OC(=O)c3ccccc3)[C@]3(O)C[C@H](OC(=O)[C@H](O)[C@@H](NC(=O)c4ccccc4)c4ccccc4)C(C)=C1C3(C)C)[C@]1(OC(C)=O)CO[C@@H]1C[C@@H]2O` [Paclitaxel], the “stability of the drug substance during the process” value is reported as “not stable during the process”.
